Target: T1, mouse Tas2r117 (Mus musculus, UniProt Q7M715)
T1 construct: expressed in transfected cells; host or cells: HEK293T-Gα16gust44
T1 sequence (Q7M715 1-330): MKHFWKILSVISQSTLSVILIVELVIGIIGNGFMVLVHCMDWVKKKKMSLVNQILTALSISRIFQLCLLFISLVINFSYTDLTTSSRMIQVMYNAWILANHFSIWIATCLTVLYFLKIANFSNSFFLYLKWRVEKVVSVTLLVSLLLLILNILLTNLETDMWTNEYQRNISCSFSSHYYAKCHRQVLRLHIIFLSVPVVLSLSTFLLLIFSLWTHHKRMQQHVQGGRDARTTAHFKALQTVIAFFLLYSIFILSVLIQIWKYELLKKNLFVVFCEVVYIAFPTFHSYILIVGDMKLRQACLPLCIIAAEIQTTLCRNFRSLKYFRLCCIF
Assay: Calcium imaging assay (FLIPR), HEK293T-Gα16gust44 cells transfected with mouse Tas2r117
Assay type: cell-based
Details: for Δ F/F: Tas2r117; for RLU: sheet Tas2r117, time trace
Procedure: This set of bile acids was chosen because of their commercial availability in high purities, their diversity within the class of bile acids and their previous detection and quantitation in human blood. Stock solutions were prepared in DMSO.
As basal growth medium for the HEK293T-Gα16gust44 cell line[17],[59] served Dulbecco’s modified eagle medium (DMEM) (Thermo Fisher Scientific, Darmstadt, Germany) supplemented with 10 % fetal bovine serum (Sigma-Aldrich, Steinheim, Germany), 2 mM L-glutamine (Sigma-Aldrich, Steinheim, Germany), 100 units/ml penicillin (Sigma Aldrich, Steinheim, Germany) and 100 µg/ml streptomycin (Sigma Aldrich, Steinheim, Germany). Growth conditions were 37 °C, 5 % CO2 and saturated air-humidity[60].
HEK293T-Gα16gust44 cells were seeded on poly-D-lysine (10 µg/ml) coated 96-well plates to reach a confluence of 40-60 % the next day. For transient transfection 150 ng of plasmid DNA containing the receptor of interest and 0.3 µl lipofectamine 2000 (Thermo Fisher Scientific, Darmstadt, Germany) per well were used and transfection took place according to the manual of lipofectamine 2000. […] The empty vector DNA (mock) was transfected as negative control[14],[41].
Cells were loaded using the calcium-sensitive fluorescent dye Fluo-4-AM (Abcam, Cambridge, Great Britain) in the presence of 2.5 mM probenecid (Sigma-Aldrich, Steinheim, Germany) the day after transfection[13],[41]. 1 h after loading, cells were washed with C1 buffer using a BioTek Cell Washer, incubated in the dark for half an hour and washed again. For automated agonist application and measurement of fluorescence changes, a FLIPR^TETRA device (Molecular Devices, San José, United States) was used. Viability of cells was tested by application of 100 nM Somatostatin 14 (Bachem, Bubendorf, Switzerland)[42].
Measured data were negative control corrected by subtracting the signal of the mock-transfected cells and exported to Microsoft Excel using the FLIPR software ScreenWorks 4.2. In Microsoft Excel software, standardization of maximum fluorescence intensities to the basal fluorescence and normalization to the buffer-only control was done to calculate the relative fluorescence changes (ΔF/F).
Initial screening experiments performed in duplicate wells were confirmed by at least one replication and representative traces were selected for display. All dose-response relationships were determined by three independent experiments (biological replicates) performed in duplicates (technical replicates). Threshold concentrations, defined as lowest substance concentrations leading to statistically significant elevated fluorescence changes in receptor-transfected cells compared with empty vector-transfected cells, were determined using SigmaPlot with Student’s t-test to evaluate statistical significance (p < 0.01).

C[C@H](CCC(=O)NCCS(=O)(=O)O)[C@H]1CC[C@H]2[C@@H]3[C@H](O)C[C@@H]4C[C@H](O)CC[C@]4(C)[C@H]3C[C@H](O)[C@]12C [Taurocholic Acid, taurocholic acid]
EC50: 37.4 ± 7.3 µM | Δ F/F (conc. 0,01 mM): 0.02164 | Δ F/F (conc. 0,1 mM): 0.0925 | Δ F/F (conc. 0,03 mM): 0.05976 | Δ F/F (conc. 0,3 mM): 0.1209 | Δ F/F (conc. 0,0003 mM): -0.001001 | Δ F/F (conc. 0,001 mM): -0.004431 | Δ F/F (conc. 0,003 mM): 0.00222 | RLU (Time (s) 0): 0 RLU | RLU (Time (s) 2): 37 RLU | RLU (Time (s) 4): -4.077 RLU | RLU (Time (s) 6): 12.5668 RLU | RLU (Time (s) 8): 5.638 RLU | RLU (Time (s) 12): -15.6594 RLU | RLU (Time (s) 14): 17.1601 RLU | RLU (Time (s) 16): -10.5322 RLU | RLU (Time (s) 18): -8.953 RLU | RLU (Time (s) 18.797): 34.4566 RLU | RLU (Time (s) 20.797): 16.7527 RLU | RLU (Time (s) 22.797): -7.054 RLU | RLU (Time (s) 24.797): 38.2926 RLU | RLU (Time (s) 26.797): 125.403 RLU | RLU (Time (s) 28.797): 141.128 RLU | RLU (Time (s) 30.797): 183.922 RLU | RLU (Time (s) 32.797): 250.112 RLU | RLU (Time (s) 34.797): 267.824 RLU | RLU (Time (s) 36.797): 315.731 RLU | RLU (Time (s) 38.797): 324.81 RLU | RLU (Time (s) 40.797): 359.212 RLU | RLU (Time (s) 42.797): 402.392 RLU | RLU (Time (s) 44.797): 440.644 RLU | RLU (Time (s) 46.797): 454.758 RLU | RLU (Time (s) 48.797): 463.447 RLU | RLU (Time (s) 50.797): 471.258 RLU | RLU (Time (s) 52.797): 487.155 RLU | RLU (Time (s) 54.797): 505.642 RLU | RLU (Time (s) 56.797): 516.341 RLU | RLU (Time (s) 58.797): 527.833 RLU | RLU (Time (s) 60.797): 539.947 RLU | RLU (Time (s) 62.797): 536.466 RLU | RLU (Time (s) 64.797): 575.129 RLU | RLU (Time (s) 66.797): 570.621 RLU | RLU (Time (s) 68.797): 568.562 RLU | RLU (Time (s) 70.797): 591.97 RLU | RLU (Time (s) 72.797): 606.798 RLU | RLU (Time (s) 74.797): 593.706 RLU | RLU (Time (s) 76.797): 614.892 RLU | RLU (Time (s) 78.797): 632.141 RLU | RLU (Time (s) 80.797): 632.141 RLU | RLU (Time (s) 82.797): 632.241 RLU | RLU (Time (s) 84.797): 611.445 RLU | RLU (Time (s) 86.797): 626.947 RLU | RLU (Time (s) 88.797): 643.242 RLU | RLU (Time (s) 90.797): 605.466 RLU | RLU (Time (s) 92.797): 611.522 RLU | RLU (Time (s) 94.797): 620.11 RLU | RLU (Time (s) 96.797): 645.547 RLU | RLU (Time (s) 98.797): 644.046 RLU | RLU (Time (s) 100.797): 637.565 RLU | RLU (Time (s) 102.797): 626.02 RLU | RLU (Time (s) 104.797): 634.671 RLU | RLU (Time (s) 106.797): 616.97 RLU | RLU (Time (s) 108.797): 624.712 RLU | RLU (Time (s) 110.797): 625.807 RLU | RLU (Time (s) 112.797): 626.586 RLU | RLU (Time (s) 114.797): 603.263 RLU | RLU (Time (s) 116.797): 606.551 RLU | RLU (Time (s) 118.797): 596.327 RLU | RLU (Time (s) 120.797): 576.654 RLU | RLU (Time (s) 122.797): 563.677 RLU | RLU (Time (s) 124.797): 585.101 RLU | RLU (Time (s) 126.797): 566.056 RLU | RLU (Time (s) 128.797): 584.636 RLU | RLU (Time (s) 130.797): 552.659 RLU | RLU (Time (s) 132.797): 568.02 RLU | RLU (Time (s) 134.797): 561.297 RLU | RLU (Time (s) 136.797): 551.223 RLU | RLU (Time (s) 137.562): 556.479 RLU | RLU (Time (s) 143.578): 502.769 RLU | RLU (Time (s) 149.578): 498.126 RLU | RLU (Time (s) 155.578): 490.146 RLU | RLU (Time (s) 161.578): 459.867 RLU | RLU (Time (s) 167.578): 446.745 RLU | RLU (Time (s) 173.578): 415.03 RLU | RLU (Time (s) 179.578): 413.791 RLU | RLU (Time (s) 191.578): 382.098 RLU | RLU (Time (s) 197.578): 382.449 RLU | RLU (Time (s) 209.578): 344.754 RLU | RLU (Time (s) 221.578): 256.376 RLU | RLU (Time (s) 233.578): 235.774 RLU | RLU (Time (s) 239.578): 212.664 RLU | RLU (Time (s) 245.578): 220.667 RLU | RLU (Time (s) 293.578): 147.781 RLU | RLU (Time (s) 299.578): 155.364 RLU | RLU (Time (s) 305.578): 177.719 RLU | RLU (Time (s) 311.578): 178.93 RLU | RLU (Time (s) 317.578): 167.01 RLU | RLU (Time (s) 323.578): 136.818 RLU | RLU (Time (s) 329.578): 148.504 RLU | RLU (Time (s) 335.578): 153.255 RLU | RLU (Time (s) 341.578): 110.601 RLU | RLU (Time (s) 347.578): 112.243 RLU | RLU (Time (s) 353.578): 94.0464 RLU | RLU (Time (s) 359.578): 105.186 RLU | Activation threshold concentration Tas2r117 (p < 0.01 vs empty vector): 30 µM

From PMC10247784, “Physiological activation of human and mouse bitter taste receptors by bile acids” (Communications Biology, 2023)
